Data from publication PMC6315362, “Cytotoxic Potential of the Novel Horseshoe Crab Peptide Polyphemusin III” (Marine Drugs, 2018).
Where a SMILES comes first, the peptide text is derived from it. Bridges are numbered along the chain shown (N, C = ends).

Key:
[1] = system: HEF (human embryonic fibroblasts); assay type: cell-based; settings: HEF normal cells; MTT after 48 h, DMEM/F12 with 10% FBS; mean ± SD of at least three independent experiments
Method: (§1) Cytotoxic activities of PM III, its isoforms, and tachyplesins against seven human cell lines were evaluated. Four cancer (HL-60 acute promyelocytic leukemia, HeLa cervix adenocarcinoma, SK-BR-3 breast adenocarcinoma, A549 lung carcinoma), one transformed (HEK 293T transformed human embryonic kidney), and two normal human cell lines (HEF human embryonic fibroblasts and NHA normal human astrocytes) were used for these experiments. Cytotoxicity was measured by incubating the cells with serial dilutions of PM I, PM II, PM III, TP I, TP II, or TP III samples followed by MTT assay after 48 h. The half-maximal inhibitory concentrations (IC50) were measured as the peptide concentration at which cell viability was reduced by 50% in comparison to untreated cells (Table 3).
(§2) The following tumor and transformed cell lines were used in this study: HL-60 (acute promyelocytic leukemia), HeLa (human cervix adenocarcinoma cells), SK-BR-3 (human breast adenocarcinoma cells), A549 (human lung carcinoma cells), HEK 293T (transformed human embryonic kidney cells), HEF (human embryonic fibroblasts), and NHA (normal human astrocytes) were used as normal cell lines. Tumor and transformed cell lines were obtained from the American Type Culture Collection (ATCC; www.atcc.org). Primary cells HEF (normal human embryonic fibroblasts derived from human embryonic stem cells) and NHA (normal human astrocytes derived from human fetal brain tissue) were obtained and cultured according to the corresponding protocol. Briefly, cells were cultured in DMEM/F12 (1:1) or RPMI-1640 medium containing 10% fetal bovine serum (Invitrogen, USA) at 37 °C in the atmosphere containing 5% CO2 and 95% air according to standard mammalian tissue culture protocols and using a sterile technique. All cell lines were tested by using the LookOut® Mycoplasma PCR Detection Kit (Sigma-Aldrich, St. Louis, MO, USA) according to the manufacturer’s protocol and found to be free of Mycoplasma infection.
(§3) The colorimetric 3-(4,5-dimethylthiazol-2-yl)-2,5-diphenyltetrazolium bromide (MTT) dye reduction assay was used to determine the cytotoxicity of the polyphemusins and tachyplesins. Cells (3 × 10^3–6 × 10^3 per well) were placed into 96-well plates in Dulbecco’s modified Eagle’s medium (DMEM/F12) supplemented with 10% fetal bovine serum (FBS). After incubation in the atmosphere containing 5% CO2 and 95% air at 37 °C overnight, the media were discarded, and polyphemusins or tachyplesins solutions were added to the cell cultures up to final concentrations of 2.5, 5, 10, 25, and 50 μM in a final volume of 0.1 mL DMEM/F12 with 10% FBS. HL-60 cells (4 × 10^4 in 50 μL) were added to two-time serial dilutions of polyphemusins solutions at a final concentration of 1.25, 2.5, 5, 10, 25, and 50 μM in 50 μL RPMI-1640 with 10% FBS. 48 hours later, 20 μL of MTT (5 mg/mL) was added into each well and the plates were incubated for 3 h at 37 °C. The plates with HL-60 cells were centrifuged for 10 min at 300 g. The media were discarded and 0.1 mL of dimethyl sulfoxide and isopropanol mixture at a ratio of 1:1 (v/v) was added to each well to dissolve the crystallized formazan. The absorbance at 570 nm was measured by a microplate reader (Eppendorf, Hamburg, Germany).

[2] = system: HEK 293T (transformed human embryonic kidney cells); assay type: cell-based; settings: MTT after 48 h, DMEM/F12 with 10% FBS, mean ± SD of at least three independent experiments
Method: as §1, §2, §3

[3] = system: NHA (normal human astrocytes); assay type: cell-based; settings: NHA normal cells; MTT after 48 h, DMEM/F12 with 10% FBS; mean ± SD of at least three independent experiments
Method: as §1, §2, §3

[4] = system: HeLa (human cervix adenocarcinoma cells); assay type: cell-based; settings: MTT after 48 h, DMEM/F12 with 10% FBS, mean ± SD of at least three independent experiments
Method: as §1, §2, §3

[5] = system: SK-BR-3 (human breast adenocarcinoma cells); assay type: cell-based; settings: MTT after 48 h, DMEM/F12 with 10% FBS, mean ± SD of at least three independent experiments
Method: as §1, §2, §3

E. coli ML-35p = test: Antimicrobial assay, broth microdilution MIC; assay type: cell-based, Escherichia coli; settings: Gram -, MH medium with NaCl, peptide diluted in 0.1% BSA, 10^6 CFU/mL, 24 h 37 °C, median of three independent triplicated experiments
Method: (§4) Bacterial test cultures were grown in the Mueller-Hinton (MH) medium at 37 °C to mid-log phase and then diluted with the 2 x MH medium supplemented with 1.8% NaCl. 50 µL of the bacterial suspension with a final cell concentration of 10^6 CFU/mL were added to aliquots of 50 µL of the peptide solutions and serially diluted with sterilized 0.1% bovine serum albumin in 96-well flat-bottom polystyrene microplates (Eppendorf, Hamburg, Germany). Bacterial cells were incubated for 24 h at 37 °C and 900 rpm on the plate thermoshaker (Biosan, Riga, Latvia). The minimum inhibitory concentrations (MIC) were determined as the lowest peptide concentration that prevented growth of a test microorganism observed as visible turbidity. The results were expressed as median values of three independent triplicated experiments. Assessment of antimicrobial activities of the recombinant PM III, other polyphemusins, and tachyplesins was conducted against Gram-negative (Escherichia coli ML-35p, Klebsiella pneumoniae (clinical isolate, CI 287), Pseudomonas aeruginosa PAO1) and Gram-positive (Staphylococcus aureus ATCC 29213, Staphylococcus aureus 209P, Bacillus subtilis B-886, Micrococcus luteus B-1314) bacteria.

S. aureus ATCC 29213 = test: Antimicrobial assay, broth microdilution MIC; assay type: cell-based, Staphylococcus aureus; settings: S. aureus ATCC 29213, Gram +, MH medium with NaCl, 24 h 37 °C, median of three independent triplicated experiments
Method: as §4

S. aureus 209P = test: Antimicrobial assay, broth microdilution MIC; assay type: cell-based, Staphylococcus aureus; settings: Gram +, MH medium with NaCl, 24 h 37 °C, median of three independent triplicated experiments
Method: as §4

[6] = system: HL-60 (acute promyelocytic leukemia); assay type: cell-based, human; settings: MTT after 48 h, RPMI-1640 with 10% FBS, mean ± SD of at least three independent experiments
Method: as §1, §2, §3

M. luteus B-1314 = test: Antimicrobial assay, broth microdilution MIC; assay type: cell-based, Micrococcus luteus; settings: M. luteus B-1314, Gram +, MH medium with NaCl, 24 h 37 °C, median of three independent triplicated experiments
Method: as §4

K. pneumoniae (CI 287) = test: Antimicrobial assay, broth microdilution MIC; assay type: cell-based, Klebsiella pneumoniae; settings: Gram -, MH medium with NaCl, 24 h 37 °C, median of three independent triplicated experiments
Method: as §4

P. aeruginosa PAO1 = test: Antimicrobial assay, broth microdilution MIC; assay type: cell-based, Pseudomonas aeruginosa; settings: P. aeruginosa PAO1, Gram -, MH medium with NaCl, 24 h 37 °C, median of three independent triplicated experiments
Method: as §4

Work on `CC(C)[C@@H]1NC(=O)[C@H](CCCNC(=N)N)NC(=O)[C@H](Cc2ccccc2)NC(=O)[C@@H](NC(=O)[C@H](Cc2c[nH]c3ccccc23)NC(=O)[C@H](CCCNC(=N)N)NC(=O)[C@@H](N)CCCNC(=N)N)CSSC[C@@H](C(=O)N[C@@H](CCCNC(=N)N)C(=O)O)NC(=O)[C@H](CCCCN)NC(=O)[C@H](CCCNC(=N)N)NC(=O)[C@H](Cc2ccc(O)cc2)NC(=O)[C@@H]2CSSC[C@H](NC1=O)C(=O)N[C@@H](Cc1ccc(O)cc1)C(=O)N[C@@H](CCCNC(=N)N)C(=O)NCC(=O)N[C@@H](Cc1ccccc1)C(=O)N2` [PM I, polyphemusin I] (H-RRWCFRVCYRGFCYRKCR-OH; disulfide 4-17, 8-13 (inferred); N-terminus assumed) yielded an IC50 [1] of 8.3 ± 0.7 µM, an IC50 [2] of 9.4 ± 1.5 µM and an IC50 [3] of 14.5 ± 1.6 µM. It also gave an IC50 [4] of 12.5 ± 0.9 µM, an IC50 [5] of 16 ± 0.6 µM and an MICs (E. coli ML-35p) of 0.062 µM. For the same compound, the MICs (S. aureus ATCC 29213) was 4 µM, the MICs (S. aureus 209P) was 0.5 µM and the IC50 [6] was 7.2 ± 0.5 µM. The MICs (M. luteus B-1314) was 0.5 µM, the MICs (K. pneumoniae (CI 287)) was 0.5 µM and the MICs (P. aeruginosa PAO1) was 0.5 µM.
